The subject of experiment [1] is Rabbit PRP (platelet aggregation). Put plainly: Antiplatelet aggregation effect, rabbit platelet rich plasma (PRP). Particulars: 37° C., 2 minutes incubation, Table III. It is filed as cell-based, male Japanese white rabbits. On the procedure: (§1) Blood was collected from the abdominal aortae of male Wister rats (weight: 200 to 300 g) or male Japanese white rabbits (weight: 1.8 to 2.5 kg) into a syringe containing 1/10 volume 3.8% sodium citrate. The blood thus obtained was centrifuged at 200×g for 7 minutes at room temperature to obtain platelet rich plasma (PRP). Furthermore, the residue was centrifuged at 2000×g for 10 minutes to obtain platelet poor plasma (PPP). The measurement was effected by diluting PRP and PPP to 300,000/mm^3. PRP and PPP were put in cuvettes, and the measurement range of transmittance was adjusted to 0% in the case of PRP and to 100% in the case of PPP. Thereafter, a test sample drug dissolved in 100% dimethyl sulfoxide (DMSO) was added to PRP (the final concentration of DMSO: 0.25%). After incubation at 37° C. and 900 rpm for 2 minutes, an aggregating agent was added to measure an aggregation curve. The antiplatelet aggregation effect of the test sample drug was expressed by a concentration, IC50 (μM), at which the aggregation of control sample was 50% inhibited. The aggregating agents ADP and collagen were used at minimum concentrations (ADP: 5 to 10 μM: collagen : 2.5 to 10 μg/ml) which caused maximum aggregation. The measurement of platelet aggregation was carried out by using NBS HEMA TRACER 601.
(§2) Tables II and III show antiplatelet aggregation effects of test compounds evaluated as IC50 values (μM).
As a comparative compound, the following compound disclosed in reference (d) was used. [drawing 20]

Experiment [2] deals with rabbit thoracic aorta ring specimen. Put plainly: Vasodilation effect, relaxation of phenylephrine contraction of rabbit thoracic aorta ring. Particulars: Oryctolagus cuniculus; contraction by phenylephrine 10^-5 M; cumulative administration from 3×10^-9 M; papaverine hydrochloride 10^-4 M = 100%; Table IV. On the procedure: By using a rabbit thoracic aorta ring specimen, the relaxation effect of a test sample drug on contraction by phenylephrine (10^-5 M) was evaluated. A test sample drug was administered cumulatively from a concentration of 3×10^-9 M, after the contraction became stable. The results were expressed on the basis that the relaxation effect of papaverine hydrochloride (10^-4 M) was 100%.
The comparative compound was the same as in Test Example 1.

The test system of experiment [3] is Rat PRP (platelet aggregation). The experiment is described as follows: Antiplatelet aggregation effect, rat platelet rich plasma (PRP). The conditions noted are these: 37° C., 2 minutes incubation, Table II. The format is cell-based, male Wister rats. On the procedure: as §1, §2
The mark [4] stands for this setting: Oryctolagus cuniculus, Platelet, 2 min, aggregating agent ADP 5 to 10 μM, read-out: Rabbit PRP IC50, ADP.
Where [5] appears, read: Oryctolagus cuniculus, Platelet, 2 min, aggregating agent collagen 2.5 to 10 μg/ml, read-out: Rabbit PRP IC50, Collagen.
Where [6] appears, read: Rattus norvegicus, Platelet, 2 min, aggregating agent ADP 5 to 10 μM, read-out: Rat PRP IC50, ADP.

Structures can show the parent of a compound that is named as a salt. Where two headings read alike, the source gives them in different places.

One may read the IC50 as the point on the concentration scale where inhibition reaches its midpoint. For the molecule `O=C1CCc2cc(OCCCCc3nnnn3C3CCCCC3)ccc2N1` [Cilostazol, reference compound], the IC50 was found to be 15000 nM in experiment [1] (setting [4]) and 2400 nM in experiment [1] (setting [5]).

By EC50 is commonly meant the concentration that produces a half-maximal response. A higher EC50 goes with a less potent agent. On to `O=c1[nH]nc(OCCCc2ccc(Cl)cc2)c(NCc2cccnc2)c1Br` [Comparative Compound, reference compound], for which the IC50 in experiment [1] (setting [4]) was 81 nM; in experiment [1] (setting [5]), 17 nM. In addition, the EC50 in experiment [2] stood at 400 nM.

In the case of `O=c1[nH]nc(OCCC(O)c2ccc(Cl)cc2)c(NCc2cccnc2)c1Br` (centres unmarked) [Compound No. 1, 4-bromo-6-[3-(4-chlorophenyl)-3-hydroxypropyloxy]-5-(3-pyridylylmethylamino)-3(2H)pyridazinone], the IC50 was 230 nM in experiment [3] (setting [6]); 99 nM in experiment [3] (aggregating agent collagen 2.5 to 10 μg/ml, read-out: Rat PRP IC50, Collagen); 50 nM in experiment [1] (setting [4]); 10 nM in experiment [1] (setting [5]). In experiment [2], this molecule showed an EC50 of 1300 nM.

On to `COc1ccc(CNc2c(OCCC(O)c3ccc(Cl)cc3)n[nH]c(=O)c2Br)cc1OC` (centres unmarked) [Compound No. 2, 4-bromo-6-[3-(4-chlorophenyl)-3-hydroxypropyloxy]-5-(3,4-dimethoxybenzylamino)-3(2H)pyridazinone], for which the IC50 in experiment [3] (setting [6]) was found to be 72 nM; in experiment [3] (Rattus norvegicus, Platelet, 2 min, aggregating agent collagen 2.5 to 10 μg/ml, read-out: Rat PRP IC50, Collagen) it was 190 nM; in experiment [1] (setting [4]) it was 41 nM; in experiment [1] (setting [5]) it was 20 nM.

Consider `O=c1[nH]nc(OCCC(O)c2ccc(Cl)cc2)c(NCc2cccnc2)c1Br` (centres unmarked) [Compound No. 65, 4-bromo-6-[3-(4-chlorophenyl)-3-hydroxypropyloxy]-5-(3-pyridylylmethylamino)-3(2H)pyridazinone hydrochloride], for which the concentration for half-maximal inhibition (IC50) in experiment [3] (aggregating agent ADP 5 to 10 μM, hydrochloride, read-out: Rat PRP IC50, ADP) came out at 210 nM; in experiment [3] (aggregating agent collagen 2.5 to 10 μg/ml, hydrochloride, read-out: Rat PRP IC50, Collagen), 220 nM; in experiment [1] (aggregating agent ADP 5 to 10 μM, hydrochloride, read-out: Rabbit PRP IC50, ADP), 53 nM; in experiment [1] (aggregating agent collagen 2.5 to 10 μg/ml, hydrochloride, read-out: Rabbit PRP IC50, Collagen), 19 nM.

Regarding `O=c1[nH]nc(OCC[C@@H](O)c2ccc(Cl)cc2)c(NCc2cccnc2)c1Br` [Compound No. 93, 4-bromo-6-[(3R)-3-(4-chlorophenyl)-3-hydroxylpropyloxy]-5-(3-pyridylylmethylamino)-3(2H)pyridazinone hydrochloride], the IC50 in experiment [1] (setting [4]) came to 47 nM; in experiment [1] (setting [5]), 9.7 nM.

Values taken from patent US5750523A, “Pyridazinone derivatives” (Nissan Chemical Industries, Ltd., priority 1994, dated 1998).
